Data from PubChem BioAssay (NCI).
Several values for one entry are separate records, joined by “and”; a condition that tells them apart may be missing. Equal entries are not always repeated.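 How tested: cells in 96-well plates exposed to compound for 48 hours at five concentrations. At the GI50, growth is halved. TGI: concentration producing complete growth inhibition.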

Tested on: MDA-MB-468 breast
Test: growth of human tumour cells (NCI), 48 h

Structure (SMILES)	GI50	TGI [µM]
NCCN1CCN(c2nccc(-c3ccc4ccccc4c3)n2)CC1	1.77 µM	3.42
CCN(CCO)CCNc1ccc(C)c2sc3cc(Cl)ccc3c(=O)c12	1.29 µM	2.78
CCCCCCNc1nc(NCCCCCC)c2[nH]c(NCCCCCC)nc2n1	1.17 µM	5.46
FC(F)(F)c1ccc2c(Nc3cccc(C4CC(c5ccccc5)=NN4c4ccc(Cl)cc4)c3)ccnc2c1 (configuration not stated)	3.02 µM	16.6
COc1ccc2c(c1)C=CC(C#N)N2C(=O)c1ccccc1 (configuration not stated)	< 0.01 µM	> 100
CCCSc1cc(Cl)nc(N)n1	85.8 µM	> 100
O=P(O)(O)C(O)(Cn1ccnc1)P(=O)(O)O	> 87.3 µM	> 100
Nc1nc(Nc2ccc(OCc3cccc(F)c3)cc2)c2c(n1)[nH]c1ccc(O)cc12	1.98 µM	5.36
COc1ccc(/C=N/NC(=O)c2[nH]c3ccc(Br)cc3c2-c2ccccc2)s1	0.0586 µM	3.78
CCCNCc1cc(C)cc2c1nc(N1CCNCC1)n2Cc1cc(C)c(F)c(C)c1	1.88 µM	3.71
COc1ccc(NC2=C(Br)C(=O)C(C)=C(C)C2=O)cc1	1.56 µM	3.16
CS(=O)(=O)Nc1ccc(-c2ccc3c(NC(=O)C4CC4)n[nH]c3c2)cc1	7.2 µM	> 23.7
CN(C)c1nc(-c2cccs2)n2nc(-c3ccc(Cl)cc3)cc2n1	3.1 µM	> 100
CCCS(=O)(=O)c1nc(NC2CC2)cc(-c2ccc3c(ccn3C3CC(C)(C)NC(C)(C)C3)c2)n1	1.75 µM	3.61
C=C(C)[C@@H]1CC[C@@]2(C(=O)O)CC[C@]3(C)C(CCC4[C@@]5(C)CCC(OS(=O)(=O)c6ccccc6)C(C)(C)C5CC[C@]43C)C12 (some centres not stated)	2.76 µM	22.6
CC(=O)O[C@H]1C(=O)[C@@]2(C)[C@H]([C@H](OC(=O)c3ccccc3)[C@]3([O-])C[C@H](OC(=O)[C@H]([O-])[C@@H](NC(=O)c4ccccc4)c4ccccc4)C(C)=C1C3(C)C)[C@]1(OC(C)=O)CO[C@@H]1C[C@@H]2[O-].[Fe+3]	0.0351 µM and 0.0363 µM	
CCCCCC(=O)Oc1ccc(/C(=C(\C)c2ccc(OC)cc2)c2ccc(OCCN3CCCCC3)cc2)cc1	4.02 µM	15.8
Cc1noc(C)c1-c1ccc2[nH]c(=O)n3c2c1OC[C@@H]3c1ccccn1	0.719 µM	> 91.3
Cc1ncc(NC(=O)c2ccc(CN3CCN(C)CC3)c(C(F)(F)F)c2)cc1Nc1nccc(-c2cccnc2)n1	14.6 µM	29.4
C=CC(=O)Nc1cccc(Nc2nc(Nc3ccc(OCCOC)cc3)ncc2F)c1	0.976 µM	3.89
Cc1sc(C)c(-c2ccc(CO)o2)c1-c1ccc(CO)o1	0.0178 µM	0.0501
O=c1cc(-c2ccccc2F)[nH]c2cc3c(cc12)OCO3	6.39 µM	> 100
CC(=O)Nc1cc(F)cc(-c2ccc3[nH]cc(-c4ccccc4)c3n2)c1	2.09 µM	6.4
CC(C)(C)OC(=O)c1ccc(NCc2cc(O)ccc2O)cc1	1.51 µM	3.45
C=CC(=O)N1CCN(c2ncnc3c(F)c(-c4c(O)cccc4F)c(Cl)cc23)CC1	10.2 µM	31.1

Structure (SMILES)	GI50	TGI [µM]
C=C1C(=O)O[C@H]2[C@H]1CC/C(COC(=O)c1cc3cc(OC)ccc3[nH]1)=C\CC[C@@]1(C)O[C@@H]21	1.13 µM	2.85
N#Cc1c(-c2ccccc2)nc2c(c(-c3ccccc3)nn2-c2ccccc2)c1-c1ccc(O)cc1	2.41 µM	5.57
CCN(Cc1c(F)cccc1F)c1ccc(CO)c(Cl)c1	0.0148 µM	0.033
COc1cc(-c2cn(C)c(=O)c(C)c2C)cc(OC)c1CN1CC[C@H](N2CCN(c3ccc(N[C@H]4CCC(=O)NC4=O)cc3F)CC2)C(F)(F)C1	7.26 µM	22.3
CNC(=O)c1cn(C[C@H](F)CCc2ccc(NC(=O)Cc3cc(OC4CC(F)(F)C4)cc(C)n3)nn2)nn1	> 100 µM	> 100
O=C(N/N=C/c1ccc(Cl)cc1Cl)c1ccccc1Nc1cccc(C(F)(F)F)c1	2.88 µM	12
CNC(=O)c1cc(Oc2ccc(NC(=O)Nc3ccc(Cl)c(OC(F)(F)F)c3)c(F)c2)ccn1	1.02 µM	4.77
CC1=C(C)C(=O)O[C@@H]([C@](C)(O)[C@]2(O)CC[C@@]3(O)[C@@H]4C[C@H]5O[C@]56CC=CC(=O)[C@]6(C)[C@H]4CC[C@]23C)C1	0.119 µM	0.725
CCOC(=O)[C@@H](C)C[C@H](Cc1ccccc1)NC(=O)c1csc([C@@H](C[C@H](C(C)C)N(C)C(=O)[C@@H](NC(=O)[C@H]2CCCCN2C)C(C)(C)C)OC(C)=O)n1	< 0.00167 µM	0.0752
CN1CCN(Cc2ccc(NC(=O)c3ccc(C(C)(C)C)c(C#Cc4cnc5cccnn45)c3)cc2C(F)(F)F)CC1	1.98 µM	3.77
CCn1c(-c2nonc2N)nc2ccc(F)cc21	> 25 µM	> 25
O=C1c2c(c3c4ccc(Br)cc4oc3c3[nH]c4ccccc4c23)C(=O)N1O	2.38 µM	8.36
CNC(=O)c1ccc(-c2cnc3ncc(Cc4ccc5ncccc5c4)n3n2)cc1F	92.3 µM	> 100
O=C(Nc1cc(-c2ccccc2)[nH]n1)c1ccc(Cl)cc1	> 100 µM	> 100
COCC(=O)OC1CCn2c1nc1c2C(=O)C(C)=C(NC(C)=O)C1=O (configuration not stated)	0.27 µM	0.894
Oc1ccc(Cc2ccccc2)c2cccnc12	1.92 µM	5.51
CC(=O)n1c(-c2ccc(Cl)cc2)nc2c(c1=O)C(c1ccc(Cl)cc1)c1sc3c(Cl)cccc3c1O2 (configuration not stated)	0.225 µM	0.56
C=CCOc1c(Br)cc(Br)cc1Br	26.4 µM	> 100
COc1ccc(/C=N/Nc2nc3ccccc3c(=O)n2-c2ccccc2)c(OCc2ccccc2)c1	> 100 µM	> 100
CNc1nc(NC2CCCC2)nc(Sc2ccc(OC)cc2)n1	> 10 µM	> 10
Cc1ccc(-c2nc(C(Cl)Cl)n3nc(-c4ccccc4)cc3n2)cc1	0.239 µM	0.612
CCNCCOc1ccc(/C(=C(/CC)c2ccc(Cl)cc2)c2ccc(OCCCN(C)C)cc2)cc1	1.52 µM	5.35
CN(C)CCCNc1c2ccc(Cl)cc2nc2c1oc1ccccc12	3.32 µM	14
CC(C)(C)c1nc2c(o1)C(=Nc1ccc(F)cc1)c1ccccc1C2=O	5.84 µM	> 100
